Results taken from patent EP0037777A1, “Process for preparation of cycloalcoyl propanol amines useful as medicine” (PIERRE FABRE S.A., priority 1980, dated 1981).
In brackets after ≈: the same amount, converted by molar mass. Where a name gives a salt, the structure may show the parent alone.

Test: Solubility
Type: physicochemical
Conditions: for Solubilités : soluble dans le diméthyl sulfoxyde: in dimethyl sulfoxide (DMSO); for solubility: in water, read-out: Solubilités : soluble dans l'eau

| SMILES | Solubilités : soluble dans le diméthyl sulfoxyde [%] | solubility [mg/mL] |
| --- | --- | --- |
| CC1CCCCC1OCC(O)CNC(C)(C)C (centres unmarked) [Exemple 1, tertiobutylamino-3 (méthyl-2 cyclohexyloxy)-1 propanol-2, maléate] | 15 | 100 (≈ 411 mM) |
| CC(C)NCC(O)COCC1CCCCC1 (centres unmarked) [Exemple 4, isopropylamino-3, cyclohexyl méthoxy-1 propanol-2 maléate] | 18 | 100 (≈ 436 mM) |
| CC(C)(C)NCC(O)COCC1CCCCC1 (centres unmarked) [Exemple 5, tertiobutylamino-3 cyclohexyl méthoxy-1, propanol-2, maléate] | 10 | 25 (≈ 103 mM) |
| C#CC(C)(C)NCC(O)COC1CCCCC1 (centres unmarked) [Exemple 3, (diméthyl-1,1 propyne-2 yl-1) amino-3, cyclohexyloxy-1 propanol-2 oxalate] | – | 20 |

Other lines, results leading:

| Solubilités : soluble dans le diméthyl sulfoxyde [%] | solubility [mg/mL] | SMILES |
| --- | --- | --- |
| 15 | 100 (≈ 414 mM) | CC(C)(C)NCC(O)COCC1CC=CCC1 (centres unmarked) [Exemple 8, tertiobutylamino-3 (cyclohexen-3 yl-1) méthoxy-1 propanol-2, maléate] |
| 10 | 20 (≈ 67.7 mM) | CC(C)(C)NCC(O)COCCC1=CCC2CC1C2(C)C (centres unmarked) [Exemple 6, tertiobutylamino-3 [(diméthyl-6-6, bicyclo (3,1,1)hepten-2 yl)-2 éthoxy7-1 propanol-2, maléate] |
